{"source": "patent US20220305129A1", "about": "“CONJUGATES OF HETEROAROMATIC NITROGEN-COMPRISING COMPOUNDS” (Ascendis Pharma A/S, priority 2019, published 2022)"}
{"assay": "In vitro release kinetics: cleavage rate of the reversible bond in aqueous buffer", "assay_type": "physicochemical", "details": "aqueous buffer (sodium phosphate with acetonitrile), pH 7.4, 37° C., 48 mM sodium phosphate, 20% acetonitrile, disappearance of conjugate by LCMS (UV), read-out: t1/2 (pH 7.4) (converted)", "protocol": "The cleavage rate of the reversible bond from conjugates 6, 10 and 11 was monitored at pH 7.4 and 37° C. in aqueous buffer (pH 7.4 48 mM sodium phosphate, 20% acetonitrile). The disappearance of the conjugate was determined by LCMS (UV detection) and fitted with curve fitting software to obtain the half-life of the release.", "units": {"half-life": "h"}}
{"smiles": "CCOC(c1ccccc1)n1ncc2ccccc21", "note": "(stereo not drawn) [Compound 11]", "half-life": 137}
{"smiles": "CCOC(c1ccccc1)n1cnc2ccccc21", "note": "(stereo not drawn) [Compound 6]", "half-life": 192}
{"smiles": "CCOC(c1ccc(CC(=O)O)cc1)n1cnc2ccccc21", "note": "(stereo not drawn) [Compound 10]", "half-life": 10}
